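Method: 48-hour compound exposure of cells in 96-well plates, five concentrations, linear interpolation of endpoints. The concentration for 50% growth inhibition is given as GI50.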 Calls of active or inactive are those of the source. Cut-off read from the data, not from the text of the source: active = GI50 up to about 1.1 µM and inactive = higher.
Key:
Test in all cases: NCI-60 cell line screen, 48 h
[1] = test system: MOLT-4
[2] = test system: RPMI-8226
[3] = test system: MDA-MB-435
[4] = test system: HCC 2998
[5] = test system: CCRF-CEM
[6] = test system: T47D
[7] = test system: ACHN
[8] = test system: UO-31
[9] = test system: HOP-92
[10] = test system: OVCAR-5
[11] = test system: RXF 393
[12] = test system: OVCAR-8
[13] = test system: MDA-N
[14] = test system: EKVX
[15] = test system: PC-3
[16] = test system: SNB-19
[17] = test system: NCI/ADR-RES
[18] = test system: K562
[19] = test system: A498

Measured: GI50

CC(C)/C(Cl)=N/OC(NC(=O)Nc1ccc(Cl)c(Cl)c1)(C(F)(F)F)C(F)(F)F
inactive: [1] 3.2 µM | [2] 1.72 µM | [3] 16.4 µM | [4] 20.1 µM | [5] 2.16 µM | [6] 7.64 µM | [7] 12.2 µM | [8] 17.3 µM | [9] 10.4 µM | [10] 19.7 µM | [11] 3.42 µM | [12] 17.7 µM | [13] 16.4 µM | [14] 19.4 µM | [15] 13.6 µM | [16] 20.2 µM | [17] 14.6 µM | [18] 3.05 µM | [19] 18.2 µM

O=S(=O)(c1cccc(C(F)(F)F)c1)N1c2ccccc2-n2cccc2C1c1cccnc1 (centres undefined)
inactive: [1] 4.18 µM | [2] 6.17 µM | [3] 6.3 µM | [4] 24.7 µM | [5] 8.75 µM | [6] 7.03 µM | [7] > 46.5 µM | [8] 17.7 µM | [9] 26.9 µM | [10] > 50.5 µM | [11] > 38.7 µM | [12] 44.3 µM | [13] 26.9 µM | [14] > 100 µM | [15] 10.7 µM | [16] 32.6 µM | [17] 5.19 µM | [18] 9.12 µM | [19] 23.3 µM

CN(C)c1nc(N)c(C#N)c(C#N)c1C#N
inactive: [1] 3.28 µM | [2] > 8.79 µM | [3] > 10 µM | [4] > 10 µM | [5] 3.08 µM | [6] > 8.32 µM | [7] > 10 µM | [8] > 10 µM | [9] > 10 µM | [10] > 10 µM | [11] > 10 µM | [12] > 10 µM | [13] > 10 µM | [14] > 10 µM | [15] > 10 µM | [16] > 10 µM | [17] > 10 µM | [18] > 4.61 µM | [19] > 10 µM

COc1ccc2c(c1)nc1n2C(N)=Nc2ccccc2S1
inactive: [1] 3.69 µM | [2] 8.73 µM | [3] 32.4 µM | [4] 31.8 µM | [5] 2.55 µM | [6] 20.8 µM | [7] 29.6 µM | [8] 26.4 µM | [9] 3.79 µM | [10] 36.6 µM | [11] 30 µM | [12] 18.4 µM | [13] 16.9 µM | [14] 28.5 µM | [15] 16.5 µM | [16] 39.3 µM | [17] 35.2 µM | [18] 4.91 µM | [19] 37.1 µM

CC(C)(C)OC(=O)NC1CCCCC1NC(=O)C(=O)NC1CCCCC1NC(=O)OC(C)(C)C (centres undefined)
inactive: [1] > 100 µM | [2] > 100 µM | [3] > 100 µM | [4] > 100 µM | [5] > 100 µM | [6] > 100 µM | [7] 39.1 µM | [8] > 100 µM | [9] 13.5 µM | [10] > 100 µM | [11] 9.46 µM | [12] > 100 µM | [13] > 100 µM | [14] > 100 µM | [15] > 100 µM | [16] 28.4 µM | [17] > 100 µM | [18] > 100 µM | [19] 32.7 µM

O=C1C=CC(=O)C1(Br)Br
inactive: [1] 14.7 µM | [2] 6.64 µM | [3] 13.4 µM | [4] 16.2 µM | [5] 7.55 µM | [6] 14.8 µM | [7] 6.75 µM | [8] 6.27 µM | [9] 16.3 µM | [10] 10.7 µM | [11] 6.37 µM | [12] 8.3 µM | [13] 11.5 µM | [14] 14.5 µM | [15] 14.6 µM | [16] 17.1 µM | [17] 20.7 µM | [18] 10.2 µM | [19] 13.2 µM

Reference: ChEMBL document CHEMBL1201862, “PubChem BioAssay data set” (2004)
